Read-outs that look alike come from different tables or passages of the source.
How the values were obtained:
[1] = Liquid-liquid distribution coefficient of cyclohexene at 120° C. and solvent effect index; assay type: physicochemical; conditions: for Solvent effect index: distribution coefficient in solvent-free system/in solvent-containing system; for Distribution coefficient of cyclohexene: molar fraction in oil phase/aqueous phase, cyclohexene/cyclohexanol/organic solvent/water 56.7/13.3/30/100 by weight
Experimental: The organic solvent used in the present invention has a solvent effect index (defined below) of not less than 1.5. The solvent effect index in the present invention is defined to be a ratio of a distribution coefficient of cyclohexene in the absence of solvent at 120° C. and a distribution coefficient of cyclohexene in a solvent-containing system at 120° C. (distribution coefficient of cyclohexene in the absence of solvent/distribution coefficient of cyclohexene in a solvent-containing system), and it indicates an effect to make predominate the distribution of cyclohexene into an aqueous solution due to the presence of the organic solvent.
Detailedly, the solvent effect index in the present invention is obtained in the following manner. Cyclohexene/cyclohexanol/organic solvent/water are charged at a weight ratio of 56.7/13.3/30/100, and the distribution coefficient of cyclohexene (molar fraction of cyclohexene in oil phase/molar fraction of cyclohexene in aqueous phase) is obtained from the liquid composition of both phases of the oil phase and the aqueous phase in an equilibrium state kept at 120° C. The ratio of the resulting distribution coefficient of cyclohexene and the distribution coefficient of cyclohexene in a solvent-free system (measured at 120° C. by charging cyclohexene/cyclohexanol/water at a weight ratio of 56.7/13.3/100), namely, the ratio of distribution coefficient in solvent-free system/distribution coefficient in solvent-containing system, is the solvent effect index in the present invention.
Here, the distribution coefficient of cyclohexene is measured by the following method. That is, an oil and water at the above weight ratio are charged in a pressure container under a nitrogen pressure, and sufficiently stirred and mixed at a rising temperature of 120° C., followed by reducing the stirring speed and leaving at rest for a time long enough to reach an equilibrium state. Thereafter, each of the oil phase and the aqueous phase is sampled in a solvent such as 1,4-dioxane, and the compositions of both the oil phase and the aqueous phase are obtained from analysis by gas chromatography and a Karl Fischer moisture meter. Thus, the distribution coefficient of cyclohexene is measured.

[2] = Solvent conversion rate in batch-wise hydration reaction of cyclohexene (H-ZSM-5 zeolite-A); assay type: physicochemical; conditions: 120° C.; for Solvent convertion rate: H-ZSM-5-A, 20 g solvent
Experimental: The organic solvent used as a reaction solvent in the method of the present invention has a conversion rate of not more than 3% under the hydration reaction conditions of cyclohexene. The conversion rate of the organic solvent in the present invention is a conversion rate in the reaction of the organic solvent per se or the organic solvent with cyclohexene or cyclohexanol per 1 hour of batch reaction at the reaction temperature at which the hydration reaction of cyclohexene is carried out. In industrial working of the present invention, the solvent used for the reaction is separated from the product cyclohexanol and circulated for reuse.
30 g of the resulting H-ZSM-5 zeolite-A catalyst and 81 g of water were charged in a glass autoclave A and heated to 120° C. with stirring under application of a nitrogen pressure of 0.5 MPa. Separately, 61 g of cyclohexene and 20 g of isophorone were charged in a glass autoclave B and heated to 120° C. under application of a nitrogen pressure of 0.6 MPa. Thereafter, the cyclohexene/isophorone mixed liquid was sent under pressure from the glass autoclave B to the glass autoclave A, and the reaction was started. After the reaction for 1 hour, the stirring was stopped, and the oil phase was sampled and analyzed by gas chromatography. At the sampling, the reaction mixture separated to two phases of oil phase and aqueous phase immediately after stopping of stirring. Yield and selectivity of cyclohexanol were as follows.
The hydration reaction of cyclohexene was carried out in the same manner as in Example 1, except that ethylene glycol monophenyl ether, phenethyl alcohol and 3,3,5-trimethylcyclohexanone were respectively used as the reaction solvents. The results of the reactions are shown in Table 1, and characteristics of the organic solvents used in this Example are shown in Table 2.
The reaction was carried out in the same manner as in Example 1, except that benzyl alcohol was used as the solvent. Yield of cyclohexanol after each reaction time was as follows.

[3] = cited from earlier work
[4] = Solvent conversion rate in continuous fixed-bed flowing hydration reaction of cyclohexene; assay type: physicochemical; conditions: fixed-bed flow; for Solvent conversion rate: 30 wt % solvent, 124-134° C., 2 MPa
Experimental: A continuous fixed-bed flowing reaction test of a cyclohexene hydration reaction was conducted under the following conditions using ethylene glycol monophenyl ether (EGMPE) as a reaction solvent. As a reaction apparatus, a stainless steel reaction vessel of 26.5 mm in internal diameter provided with a heating medium jacket was used. In the upper part of the reaction vessel, there were provided feed openings for water and oil, and in the lower part of the reaction vessel, oil and water in the mixed state were led to a reaction mixture storage tank through a pressure regulating valve, and oil and water were separated from each other in the reaction mixture storage tank. ZSM-5 zeolite (silica/alumina molar ratio=50) manufactured by Engelhard Co., Ltd. with addition of 20 wt % of an alumina binder was extrusion molded to a size of 1/16 inch in external diameter and 5 mm in length, and this was used as the catalyst. The height of the catalyst layer was 240 mm. The continuous reaction was carried out by an oil-water falling parallel flow sealing reaction method under the following conditions.
The oil phase discharged into the reaction mixture storage tank was analyzed by gas chromatography to obtain the results of the reaction. At the time of starting of the reaction, only cyclohexene was fed, and after a lapse of 20 hours from the starting of the reaction, the starting material was changed to a mixed liquid of cyclohexene/ethylene glycol monophenyl ether=70/30 (weight ratio), and thereafter the reaction was continued for 150 hours.

[5] = phenol-containing system, 120° C.; solvent-free system 3818; cited from earlier work

Row | SMILES | Solvent effect index [1] | Distribution coefficient of cyclohexene [1] | Solvent convertion rate ([2]; 1 hour) | Solubility in water (25° C.) [3] | other results
1 | CC1CC(=O)CC(C)(C)C1 (centres unmarked) [3,3,5-Trimethylcyclohexanone] | 2.14 | 1929 | 0.00% | 0.80 g/100 ml | –
2 | OCCOc1ccccc1 [Ethylene glycol monophenyl ether, ethylene glycol monophenyl ether] | 2.46 | 1681 | 0.70% | 2.70 g/100 ml | Solvent conversion rate ([4]; reaction time 25 Hr): 0.84%; Solvent conversion rate ([4]; reaction time 80 Hr): 0.63%; Solvent conversion rate ([4]; reaction time 150 Hr): 0.42%; conversion rate to ethylene glycol cyclohexylphenyl ether ([4]; under the hydration reaction conditions): less than 1%
3 | CC1=CC(=O)CC(C)(C)C1 [Isophorone] | 2.19 | 1884 | 0.00% | 1.2 g/100 ml | change of the solvent in the hydration reaction ([2]; H-ZSM-5 zeolite-A, 1 hour): showed no change; Solubility in water (25° C.) ([3]; listed as IPN): 1.20 g/100 ml
4 | OCCc1ccccc1 [Phenethyl alcohol] | 2.24 | 1846 | 0.35% | 2.00 g/100 ml | –
5 | OCc1ccccc1 [benzyl alcohol, reference compound] | – | – | – | – | conversion rate of the reaction solvent to dibenzyl ether ([2]; H-ZSM-5 zeolite-A, after 1 hour): 11.4%; conversion rate of the reaction solvent to dibenzyl ether ([2]; H-ZSM-5 zeolite-A, after 2 hours): 16.0%
6 | O=C1CCCCC1 [cyclohexanone, reference compound] | – | – | – | – | solubility in water [3]: 8.7%
7 | Oc1ccccc1 [phenol] | – | – | – | – | cyclohexene distribution coefficient (concentration in oil phase mol %/aqueous phase mol %) [5]: 680
